# Test results reported in article PMC2360532, “Somatostatin receptor expression, tumour response, and quality of life in patients with advanced hepatocellular carcinoma treated with long-acting octreotide” (British Journal of Cancer, 2006).
# Key:
# [1] = test system: patients with advanced HCC; test: Serious adverse events and tolerability; type: in vivo, human
# Method: The planned duration of treatment was 12 months in the absence of disease progression, unacceptable toxicity, or withdrawal at the patient's or doctor's discretion. An extension phase allowed treatment to continue beyond 12 months on an individual basis at the discretion of the principal investigator.
# Subjects were seen monthly for clinical review, blood tests, and administration of the study drug. Response was assessed using the RECIST (response evaluation criteria in solid tumours) criteria ([Therasse et al, 2000]). Radiological assessment was undertaken 3-monthly and any partial or complete responses were confirmed 1 month later.
# [2] = patients who remained on the study for 6 months or more
# Text: (§1) Blood was also sampled for octreotide pharmacokinetics and assessment of chromogranin A levels before the 4th and 7th doses.
# (§2) Samples were taken immediately before the 4th and 7th doses of octreotide (weeks 12 and 24 of treatment). These time points were selected in order to assess trough octreotide plasma concentrations at steady state after three doses and to determine potential octreotide accumulation in this cirrhotic population with more continued dosing. Additional samples were also collected in some cases. […] The lower limit of quantification was 50 pg ml^−1 for a 50 μl plasma sample.
# HCC = conditions: ref Kouroumalis et al (1998), cited from earlier work
# Text: High-affinity somatostatin receptors capable of binding octreotide are present in approximately 40% of HCC, and not in adjacent liver. However, the numbers of high-affinity receptors are lower than reported for neuroendocrine tumours ([Reubi et al, 1999]). Somatostatin is a potent inhibitor of several growth factors and angioneogenesis ([Flori ... || Most patients with advanced HCC have a dismal prognosis ([Leung and Johnson, 2001]). However, a treatment that benefits only a subset of patients may still be clinically worthwhile. The very different outcomes in the randomised trials by Kouroumalis and Yuen probably reflect differences in patient selection ([Kouroumalis et al, 1998]; [Yuen et al, 2002]). The Yuen study had subjects with more advanced disease, a higher proportion with viral hepatitis, and a median survival of only 2 months. Our study population was more similar to the Kouroumalis study population (Table 4) and our median survi ...
# [3] = cited from earlier work
# Text: Safety is important for people with comorbidities. There is limited information available about the elimination kinetics of octreotide in cirrhosis. […] Since pharmacokinetics may be altered in patients with cirrhosis, it was considered necessary to determine whether liver impairment predisposes to toxicity and ...
# clinical = conditions: human, plasma, im, 20 mg
# Text: as §1, §2
# [4] = short-acting form, ref Jenkins et al (1998)
structure (smiles),measurement,setting,value
C[C@@H](O)[C@@H]1NC(=O)[C@H](CCCCN)NC(=O)[C@@H](Cc2c[nH]c3ccccc23)NC(=O)[C@H](Cc2ccccc2)NC(=O)[C@@H](NC(=O)[C@H](N)Cc2ccccc2)CSSC[C@@H](C(=O)N[C@H](CO)[C@@H](C)O)NC1=O [octreotide],Serious adverse events attributed to the drug,"[1]; 20 mg i.m. every 28 days, advanced HCC",No serious adverse events were attributed
same,"Treatment stopped because of adverse effects (cramps), cases",[1]; 63 patients,one
same,Accumulation of octreotide in plasma,[2],no evidence of accumulation
same,Median survival,"HCC; short-acting octreotide arm vs 4 months in untreated control, HCC",13 months
same,12-month survival,"HCC; short-acting octreotide arm vs 13% in untreated control, P=0.002",56%
same,Plasma concentrations,"[3]; 30 mg i.m. dose, six patients with acromegaly (noncirrhotic), ref Stewart et al, 1995",1.682 ± 0.174 ng/mL
same,Clearance in patients with cirrhosis,[3]; [4],reduced
same,Half-life in patients with cirrhosis,[3]; [4],prolonged
same,level at 2016 h,clinical,2.21 ng/mL
same,level at 4032 h,clinical,3.38 ng/mL
same,level at 6480 h,clinical,3.24 ng/mL
